Experimental data reported in US11638707B2, “Substituted amino triazoles useful as chitinase inhibitors” (Molecure S.A., priority 2019, dated 2023).
Where a name gives a salt, the structure may show the parent alone.

Tests used:
hERG channel = hERG channel (Homo sapiens (Human), UniProt Q12809); experiment: Human ERG channel binding assay (fluorescence polarization); details: Table 1; tracer displacement, 4 h at room temperature
Experimental: Human ERG Channel Binding Assay
Fluorescence polarization assay based on the principle of fluorescence polarization where a red-shifted fluorescent tracer is displaced from the hERG channel by compounds that bind to the channel was used to establish the binding of the compounds to hERG channel. […] Briefly, the compounds in serial dilutions were incubated with a membrane fraction containing hERG channel protein and a high-affinity red fluorescent hERG channel ligand in black 384-well plate. […] The IC50 values were calculated using GraphPad Prism.

recombinant human CHIT1 = recombinant human CHIT1 (Homo sapiens (Human), UniProt Q13231); experiment: Human CHIT1 activity assay; assay type: biochemical; details: recombinant human CHIT1, citrate buffer pH 5.2, 37° C., 60 minutes; read-out: hCHIT1, IC50
Experimental: (§1) The assay was run in the 96-well plate format, each reaction in the total volume of 100 μL. 4-methylumbelliferyl β-D-N,N′,N″-triacetylchitotriose was used as a substrate for the enzyme. Upon hydrolysis by CHIT1, the substrate releases 4-methylumbelliferyl (4MU) that, when ionized in basic pH, emits fluorescence at 460 nm. Briefly, 40 μL of a substrate was added to each well, followed by 10 μL of compound dilution and 50 μL of CHIT1 recombinant enzyme solution. The reaction was carried out in citrate buffer, pH 5.2, in the dark, at 37° C. for 60 minutes with shaking. […] The IC50 values were calculated using GraphPad Prism.

recombinant human AMCase = recombinant human AMCase (Homo sapiens (Human), UniProt Q9BZP6); experiment: Human AMCase activity assay; assay type: biochemical; details: citrate buffer pH 5.2, 37° C., 60 minutes, read-out: hAMCase, IC50
Experimental: as §1, with “4-Methylumbelliferyl B-D-N,N′-diacetylchitobioside hydrate” for “4-methylumbelliferyl β-D-N,N′,N″-triacetylchitotriose”, “AMCase,” for “CHIT1,”, “hAMCase” for “CHIT1”

Chain of recombinant human AMCase (Q9BZP6 22-476): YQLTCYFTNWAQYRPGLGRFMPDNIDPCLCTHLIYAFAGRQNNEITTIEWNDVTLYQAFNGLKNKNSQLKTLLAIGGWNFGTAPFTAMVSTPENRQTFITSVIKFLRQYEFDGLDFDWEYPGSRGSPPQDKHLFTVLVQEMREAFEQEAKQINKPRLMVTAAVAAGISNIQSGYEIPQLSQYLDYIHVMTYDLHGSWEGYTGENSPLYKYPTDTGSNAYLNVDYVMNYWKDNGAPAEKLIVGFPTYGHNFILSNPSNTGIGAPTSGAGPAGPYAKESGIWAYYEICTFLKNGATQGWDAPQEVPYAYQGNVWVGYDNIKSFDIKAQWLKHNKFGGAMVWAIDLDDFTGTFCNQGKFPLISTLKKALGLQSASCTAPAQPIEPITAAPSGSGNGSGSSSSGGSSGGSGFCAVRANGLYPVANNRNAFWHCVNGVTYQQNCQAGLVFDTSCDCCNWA
Chain of recombinant human CHIT1 (Q13231 22-466): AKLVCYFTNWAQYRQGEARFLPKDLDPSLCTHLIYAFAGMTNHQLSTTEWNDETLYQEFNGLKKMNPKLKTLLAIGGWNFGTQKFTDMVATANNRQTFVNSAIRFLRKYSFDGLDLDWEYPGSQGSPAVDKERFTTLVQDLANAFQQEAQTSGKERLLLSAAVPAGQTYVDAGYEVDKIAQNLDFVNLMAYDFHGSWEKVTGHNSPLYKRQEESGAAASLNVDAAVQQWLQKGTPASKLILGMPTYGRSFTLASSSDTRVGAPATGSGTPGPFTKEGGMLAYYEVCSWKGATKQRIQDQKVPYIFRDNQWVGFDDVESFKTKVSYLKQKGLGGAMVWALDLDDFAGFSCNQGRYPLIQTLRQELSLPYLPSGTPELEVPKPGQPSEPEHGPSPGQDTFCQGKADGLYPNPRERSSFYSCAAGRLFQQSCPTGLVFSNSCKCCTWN
Chain of hERG channel (Q12809 whole entry): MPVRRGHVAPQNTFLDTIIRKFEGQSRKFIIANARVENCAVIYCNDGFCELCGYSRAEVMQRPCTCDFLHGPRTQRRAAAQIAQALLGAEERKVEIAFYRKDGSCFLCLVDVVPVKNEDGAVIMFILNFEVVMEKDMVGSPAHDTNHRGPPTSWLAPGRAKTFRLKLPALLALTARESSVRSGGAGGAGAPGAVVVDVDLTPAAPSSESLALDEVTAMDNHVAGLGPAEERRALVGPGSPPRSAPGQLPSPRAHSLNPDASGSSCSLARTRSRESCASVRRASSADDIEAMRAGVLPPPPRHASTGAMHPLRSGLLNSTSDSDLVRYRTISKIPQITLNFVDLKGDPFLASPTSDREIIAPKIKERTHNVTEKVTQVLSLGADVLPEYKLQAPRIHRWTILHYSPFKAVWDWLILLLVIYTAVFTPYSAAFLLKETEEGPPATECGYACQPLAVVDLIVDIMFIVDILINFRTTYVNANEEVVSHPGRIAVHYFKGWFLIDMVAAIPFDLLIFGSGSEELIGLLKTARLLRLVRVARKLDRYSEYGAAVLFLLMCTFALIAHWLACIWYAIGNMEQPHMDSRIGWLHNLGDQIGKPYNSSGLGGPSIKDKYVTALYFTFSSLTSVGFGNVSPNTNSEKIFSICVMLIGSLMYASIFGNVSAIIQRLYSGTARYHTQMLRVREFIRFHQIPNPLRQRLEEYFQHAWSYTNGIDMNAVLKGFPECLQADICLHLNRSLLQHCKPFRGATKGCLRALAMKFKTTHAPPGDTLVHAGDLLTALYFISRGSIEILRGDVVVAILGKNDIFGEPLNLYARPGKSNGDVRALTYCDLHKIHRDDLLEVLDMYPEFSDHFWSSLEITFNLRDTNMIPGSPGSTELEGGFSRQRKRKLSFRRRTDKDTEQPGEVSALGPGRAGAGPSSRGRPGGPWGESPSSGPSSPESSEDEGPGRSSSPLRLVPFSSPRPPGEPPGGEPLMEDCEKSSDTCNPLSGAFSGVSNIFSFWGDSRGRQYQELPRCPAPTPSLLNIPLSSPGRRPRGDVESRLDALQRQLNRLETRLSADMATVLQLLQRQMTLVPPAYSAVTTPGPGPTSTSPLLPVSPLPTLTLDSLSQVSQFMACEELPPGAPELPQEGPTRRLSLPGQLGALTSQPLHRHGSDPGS

| SMILES | IC50 (hERG channel) | IC50 (recombinant human CHIT1) | IC50 (recombinant human AMCase) |
| --- | --- | --- | --- |
| CS(=O)(=O)C[C@H]1CN(C2CCN(c3nnc(N)[nH]3)CC2)[C@@H](Cc2ccc(Cl)cc2)CO1 [Example 33, 5-(4-((2R,5S)-5-(4-chlorobenzyl)-2-((methylsulfonyl)methyl)morpholino)piperidin-1-yl)-4H-1,2,4-triazol-3-amine dihydrochloride] | > 100 µM | < 0.1 µM | < 0.1 µM |
| Nc1nnc(N2CCC(N3C[C@H](c4ccn[nH]4)OC[C@@H]3Cc3ccc(Cl)cc3)CC2)[nH]1 [Example 12, 5-(4-((2R,5S)-5-(4-chlorobenzyl)-2-(1H-pyrazol-5-yl)morpholino)piperidin-1-yl)-4H-1,2,4-triazol-3-amine 2,2,2-trifluoroacetate] | > 100 µM | < 0.1 µM | < 0.1 µM |
| Nc1nnc(N2CCC(N3C[C@H](CF)OC[C@@H]3Cc3ccc(Cl)cc3)CC2)[nH]1 [Example 3, 5-(4-((2R,5S)-5-(4-chlorobenzyl)-2-(fluoromethyl)morpholino)piperidin-1-yl)-4H-1,2,4-triazol-3-amine 2,2,2-trifluoroacetate] | > 100 µM | < 0.1 µM | < 0.1 µM |
| Nc1nnc(N2CCC(N3C[C@@H]4COCCN4C[C@@H]3Cc3ccc(Cl)cc3)CC2)[nH]1 [Example 73, 5-(4-((7S,9aR)-7-(4-chlorobenzyl)hexahydropyrazino[2,1-c][1,4]oxazin-8(1H)-yl)piperidin-1-yl)-4H-1,2,4-triazol-3-amine hydrochloride] | 1 to 10 µM | 0.1 to 1 µM | < 0.1 µM |
| C[S+]([O-])C[C@H]1CN(C2CCN(c3nnc(N)[nH]3)CC2)[C@@H](Cc2ccc(Cl)cc2)CO1 (stereo partly drawn) [Example 32, 5-(4-((2R,5S)-5-(4-chlorobenzyl)-2-((methylsulfinyl)methyl)morpholino)piperidin-1-yl)-4H-1,2,4-triazol-3-amine dihydrochloride] | > 100 µM | < 0.1 µM | < 0.1 µM |
| Nc1nnc(N2CCC(N3C[C@H](CN4CC[C@H](O)C4)OC[C@@H]3Cc3ccc(Cl)cc3)CC2)[nH]1 [Example 30, (S)-1-(((2S,5S)-4-(1-(5-amino-4H-1,2,4-triazol-3-yl)piperidin-4-yl)-5-(4-chlorobenzyl)morpholin-2-yl)methyl)pyrrolidin-3-ol 2,2,2-trifluoroacetate] | > 100 µM | 0.1 to 1 µM | < 0.1 µM |
| CS(=O)(=O)CCNC(=O)[C@H]1CN(C2CCN(c3nnc(N)[nH]3)CC2)[C@@H](Cc2ccc(Cl)cc2)CO1 [Example 45, (2R,5S)-4-(1-(5-amino-4H-1,2,4-triazol-3-yl)piperidin-4-yl)-5-(4-chlorobenzyl)-N-(2-(methylsulfonyl)ethyl)morpholine-2-carboxamide 2,2,2-trifluoroacetate] | > 100 µM | < 0.1 µM | < 0.1 µM |
| Nc1nnc(N2CCC(N3C[C@H](C(F)F)OC[C@@H]3Cc3ccc(Cl)cc3)CC2)[nH]1 [Example 2, 5-(4-((2R,5S)-5-(4-chlorobenzyl)-2-(difluoromethyl)morpholino)piperidin-1-yl)-4H-1,2,4-triazol-3-amine 2,2,2-trifluoroacetate] | > 100 µM | < 0.1 µM | < 0.1 µM |
| CC(C)(O)[C@H]1CN(C2CCN(c3nnc(N)[nH]3)CC2)[C@@H](Cc2ccc(Br)cc2)CO1 [Example 64, 2-((2R,5S)-4-(1-(5-amino-4H-1,2,4-triazol-3-yl)piperidin-4-yl)-5-(4-bromobenzyl)-morpholin-2-yl)propan-2-ol 2,2,2-trifluoroacetate] | > 100 µM | < 0.1 µM | < 0.1 µM |
| Nc1nnc(N2CCC(N3C[C@H]([C@H](O)C(F)(F)F)OC[C@@H]3Cc3ccc(Cl)cc3)CC2)[nH]1 [Example 16, (S)-1-((2R,5S)-4-(1-(5-amino-4H-1,2,4-triazol-3-yl)piperidin-4-yl)-5-(4-chloro-benzyl)morpholin-2-yl)-2,2,2-trifluoroethanol 2,2,2-trifluoroacetate] | > 100 µM | < 0.1 µM | < 0.1 µM |
| Cc1nc([C@H]2CN(C3CCN(c4nnc(N)[nH]4)CC3)[C@@H](Cc3ccc(Cl)cc3)CO2)oc1C [Example 50, 5-(4-((2R,5S)-5-(4-chlorobenzyl)-2-(4,5-dimethyloxazol-2-yl)morpholino)piperidin-1-yl)-4H-1,2,4-triazol-3-amine 2,2,2-trifluoroacetate] | 1 to 10 µM | < 0.1 µM | < 0.1 µM |
| Nc1nnc(N2CCC(N3C[C@H](CN4CCC(F)(F)C4)OC[C@@H]3Cc3ccc(Cl)cc3)CC2)[nH]1 [Example 29, 5-(4-((2S,5S)-5-(4-chlorobenzyl)-2-((3,3-difluoropyrrolidin-1-yl)methyl)-morpholino)piperidin-1-yl)-4H-1,2,4-triazol-3-amine 2,2,2-trifluoroacetate] | > 100 µM | < 0.1 µM | < 0.1 µM |
| Nc1nnc(N2CCC(N3C[C@H](C(=O)NCC(F)F)OC[C@@H]3Cc3ccc(Cl)cc3)CC2)[nH]1 [Example 25, (2R,5S)-4-(1-(5-amino-4H-1,2,4-triazol-3-yl)piperidin-4-yl)-5-(4-chlorobenzyl)-N-(2,2-difluoroethyl)morpholine-2-carboxamide 2,2,2-trifluoroacetate] | > 100 µM | < 0.1 µM | < 0.1 µM |
| Nc1nnc(N2CCC(N3C[C@H](Cn4ccnn4)OC[C@@H]3Cc3ccc(Cl)cc3)CC2)[nH]1 [Example 21, 5-(4-((2R,5S)-2-((1H-1,2,3-triazol-1-yl)methyl)-5-(4-chlorobenzyl)morpholino)-piperidin-1-yl)-4H-1,2,4-triazol-3-amine 2,2,2-trifluoroacetate] | 25 to 100 µM | < 0.1 µM | < 0.1 µM |
| Nc1nnc(N2CCC(N3C[C@H](CN4CCOCC4)OC[C@@H]3Cc3ccc(Cl)cc3)CC2)[nH]1 [Example 15, 5-(4-((2S,5S)-5-(4-chlorobenzyl)-2-(morpholinomethyl)morpholino)piperidin-1-yl)-4H-1,2,4-triazol-3-amine 2,2,2-trifluoroacetate] | > 100 µM | < 0.1 µM | < 0.1 µM |
| Cn1ccc([C@H]2CN(C3CCN(c4nnc(N)[nH]4)CC3)[C@@H](Cc3ccc(Cl)cc3)CO2)n1 [Example 9, 5-(4-((2R,5S)-5-(4-chlorobenzyl)-2-(1-methyl-1H-pyrazol-3-yl)morpholino)-piperidin-1-yl)-4H-1,2,4-triazol-3-amine 2,2,2-trifluoroacetate] | > 100 µM | < 0.1 µM | < 0.1 µM |
| Nc1nnc(N2CCC(N3C[C@H](CF)OC[C@@H]3Cc3ccc(Br)cc3)CC2)[nH]1 [Example 76, 5-(4-((2R,5S)-5-(4-bromobenzyl)-2-(fluoromethyl)morpholino)piperidin-1-yl)-4H-1,2,4-triazol-3-amine 2,2,2-trifluoroacetate] | > 100 µM | < 0.1 µM | < 0.1 µM |
| Nc1nnc(N2CCC(N3C[C@@H]4CC(F)(F)CN4C[C@@H]3Cc3ccc(C(F)(F)F)cc3)CC2)[nH]1 [Example 78, 5-(4-((3S,8aS)-7,7-difluoro-3-(4-(trifluoromethyl)benzyl)hexahydropyrrolo[1,2-a]pyrazin-2(1H)-yl)piperidin-1-yl)-4H-1,2,4-triazol-3-amine 2,2,2-trifluoroacetate] | 10 to 25 µM | < 0.1 µM | < 0.1 µM |
